The NIST ThermoML archive (doi:10.1021/je400336p)

Experiment: xn = mol fraction of the nth substance listed
Settings: Fluid (supercritical or subcritical phases), Taylor dispersion method, x1 = 0

CCC(C)c1ccccc1 (stereo not given) [(1-methylpropyl)benzene] + O=C=O
binary diffusion coefficient (313 K, 15000 kPa): 1.01e-08 m2/s | binary diffusion coefficient (313 K, 20000 kPa): 9.15e-09 m2/s | binary diffusion coefficient (313 K, 25000 kPa): 8.18e-09 m2/s | binary diffusion coefficient (313 K, 30000 kPa): 7.54e-09 m2/s | binary diffusion coefficient (313 K, 35000 kPa): 7.24e-09 m2/s | binary diffusion coefficient (323 K, 15000 kPa): 1.2e-08 m2/s | binary diffusion coefficient (323 K, 20000 kPa): 1.02e-08 m2/s | binary diffusion coefficient (323 K, 25000 kPa): 9.3e-09 m2/s | binary diffusion coefficient (323 K, 30000 kPa): 8.54e-09 m2/s | binary diffusion coefficient (323 K, 35000 kPa): 8.07e-09 m2/s | binary diffusion coefficient (333 K, 15000 kPa): 1.32e-08 m2/s | binary diffusion coefficient (333 K, 20000 kPa): 1.19e-08 m2/s | binary diffusion coefficient (333 K, 25000 kPa): 1.04e-08 m2/s | binary diffusion coefficient (333 K, 30000 kPa): 9.49e-09 m2/s | binary diffusion coefficient (333 K, 35000 kPa): 8.98e-09 m2/s

CC(C)Cc1ccccc1 [(2-methylpropyl)benzene] + O=C=O
binary diffusion coefficient (313 K, 15000 kPa): 1.02e-08 m2/s | binary diffusion coefficient (313 K, 20000 kPa): 9.12e-09 m2/s | binary diffusion coefficient (313 K, 25000 kPa): 8.35e-09 m2/s | binary diffusion coefficient (313 K, 30000 kPa): 7.6e-09 m2/s | binary diffusion coefficient (313 K, 35000 kPa): 7.28e-09 m2/s | binary diffusion coefficient (323 K, 15000 kPa): 1.24e-08 m2/s | binary diffusion coefficient (323 K, 20000 kPa): 1.03e-08 m2/s | binary diffusion coefficient (323 K, 25000 kPa): 9.43e-09 m2/s | binary diffusion coefficient (323 K, 30000 kPa): 8.64e-09 m2/s | binary diffusion coefficient (323 K, 35000 kPa): 8.07e-09 m2/s | binary diffusion coefficient (333 K, 15000 kPa): 1.4e-08 m2/s | binary diffusion coefficient (333 K, 20000 kPa): 1.24e-08 m2/s | binary diffusion coefficient (333 K, 25000 kPa): 1.07e-08 m2/s | binary diffusion coefficient (333 K, 30000 kPa): 9.88e-09 m2/s | binary diffusion coefficient (333 K, 35000 kPa): 9.37e-09 m2/s

CC(C)CCc1ccccc1 [(3-methylbutyl)benzene] + O=C=O
binary diffusion coefficient (313 K, 15000 kPa): 9.63e-09 m2/s | binary diffusion coefficient (313 K, 20000 kPa): 8.71e-09 m2/s | binary diffusion coefficient (313 K, 25000 kPa): 7.72e-09 m2/s | binary diffusion coefficient (313 K, 30000 kPa): 7.24e-09 m2/s | binary diffusion coefficient (313 K, 35000 kPa): 6.79e-09 m2/s | binary diffusion coefficient (323 K, 15000 kPa): 1.11e-08 m2/s | binary diffusion coefficient (323 K, 20000 kPa): 9.92e-09 m2/s | binary diffusion coefficient (323 K, 25000 kPa): 8.94e-09 m2/s | binary diffusion coefficient (323 K, 30000 kPa): 8.4e-09 m2/s | binary diffusion coefficient (323 K, 35000 kPa): 7.57e-09 m2/s | binary diffusion coefficient (333 K, 15000 kPa): 1.32e-08 m2/s | binary diffusion coefficient (333 K, 20000 kPa): 1.16e-08 m2/s | binary diffusion coefficient (333 K, 25000 kPa): 1.02e-08 m2/s | binary diffusion coefficient (333 K, 30000 kPa): 9.21e-09 m2/s | binary diffusion coefficient (333 K, 35000 kPa): 8.62e-09 m2/s
